According to publication PMC7415810, “A novel nucleolin-binding peptide for Cancer Theranostics” (Theranostics, 2020):

Experiments:
[1] = test system: MDA-MB-231-luc xenograft; test: Tumorigenesis experiment, MDA-MB-231-luc breast cancer xenograft; conditions: 16.68 mg/kg (molar equivalent to 2 mg/kg of PTX), tail vein twice a week, n = 5
Experimental: All animal experiments were performed in accordance with IACUC guidelines (GIST-2019-040). For tumorigenesis experiments, anesthetized 6-week-old female NOD-scid Il2rg^-^/^- mice (NPG^TM, VITALSTAR) were inoculated in the mammary fat pad with 1 × 10^6 MDA-MB-231-luc cells in a 100 μl volume (n = 5 for each group). After tumor cell inoculation, when the tumor volume reached approximately 100 mm^3, the mice were randomly divided into the following five groups: (i) control, (ii) low-dose paclitaxel (2 mg/kg), (iii) high-dose paclitaxel (10 mg/kg), (iv) AGM-330 (16.68 mg/kg, molar equivalent to 2 mg/kg of PTX), and (v) AGM-330-PTX (19.05 mg/kg, molar equivalent to 2 mg/kg of PTX). The tumor size was measured twice a week, and the tumor volume was calculated with the following formula: volume (mm^3) = [length (mm)] × [width (mm)]^2 × 0.5. For the bioluminescent imaging experiment, D-luciferin (150 mg/kg; PerkinElmer) was intraperitoneally injected into each mouse, and an IVIS 100 imaging system (Xenogen, Corporation, Alameda, CA) was used for bioluminescent monitoring. Mice were anesthetized with vaporized isofurane (BK Pharm, Ilsan, Korea) and placed in an imaging chamber. After 10 min, each animal was imaged with an exposure time of 1 min. All bioluminescent image data were obtained using Living Image software (version 4.5.2, PerkinElmer). Photons detected from tumors were converted to average radiance values (photon/sec/cm^2/sr), which are quantitative data obtained from a region of […] (ROI) and include the photons emitted by bioluminescent cells from an assigned rectangular area over the whole body of each mouse.
A, Cell proliferation inhibition by AGM-330-PTX treatment was determined for 48 h by the WST assay in multiple breast and colorectal cancer cells and in normal cells. B, Schematic representation of the experimental protocol as described in the materials and methods section. Anesthetized 6‑week-old […] NPG mice were inoculated with a 1:1 mix of Matrigel and 1 × 10^6 MDA-MB-231-luc cells into the mammary fat pad. When the volume of primary tumors reached approximately 100 mm^3, tumor-bearing mice were treated with vehicle (PBS), PTX (2 or 10 mg/kg), AGM-330 (16.68 mg/kg, molar equivalent to 2 mg/kg of PTX), or AGM-330-PTX (19.05 mg/kg, molar equivalent to 2 mg/kg of PTX; n = 5/group). C-E, The therapeutic effect of AGM-330-PTX was evaluated in breast cancer xenograft models. C, Primary tumor volume was measured twice a week until the day of sacrifice. The primary tumor volume was calculated by the formula volume (mm^3) = (length (mm)) × (width (mm))^2 × 0.5. D, On the day of sacrifice, all primary tumors were isolated, and (E) the primary tumor weights were evaluated. F-I, Immunohistochemistry (IHC) sections of representative tumors with Ki-67 (F,H) and TUNEL (G,I) staining. Nuclei were stained with DAPI (blue). Scale bar, 50 µm. Bar graphs represent the mean ± SD, and statistical analyses were performed by one-way ANOVA with Dunnett's multiple comparison. *, **, and *** indicate P < 0.05, P < 0.01, and P < 0.001, respectively.
Following in vitro proliferation analysis on cancer lines, we investigated whether AGM-330-PTX could be a potential therapeutic agent in vivo. We inoculated MDA-MB-231-luc cells into the mammary fat pad of NPG mice. After the […] tumors grew to 100 mm^3, comparative efficacy studies were performed by dividing the animals into five groups (n = 5/group) treated with vehicle (PBS), PTX (2 or 10 mg/kg, respectively), AGM-330 (16.68 mg/kg, molar equivalent to 2 mg/kg of PTX), or AGM-330-PTX (19.05 mg/kg, molar equivalent to 2 mg/kg of PTX) twice a week by tail vein injection (Figure 5B). Tumor growth was monitored by measuring volumes twice a week with a caliber rule over the course of 3 weeks.
Figure S11. A-E, NPG TM mice bearing MDA-MB-231-luc tumors were treated twice a week for 21 days with […]

[2] = test system: MDA-MB-231 cells; test: cells; conditions: read-out: IC50, MDA-MB-231 cells; 48 h treatment, WST-1
Experimental: (§1) Cancer and normal cells (1 × 10^4 cells/well) were seeded in 96-well plates, incubated for 24 h, and then treated with increasing concentrations of AGM-330, PTX, and AGM-330-PTX for 48 h. Cell viability was assessed by the CellVia WST-1 assay (Young In Frontier) according to the manufacturer's instructions. The numbers of viable cells were measured at a wavelength of 450 nm using a VersaMax ELISA plate reader (Molecular Devices, San Jose, CA, USA).
(§2) Figure S3. A-C, Cancer and normal cells (1 × 10^4 cells/well) were seeded in 96-well plates. After 24 h of incuba-tion, the cells were treated with an increasing concentration of dimeric or tetrameric AGM-330 for 48 h. The viability of cells grown in 0 % FBS (A), 5 % FBS (B) or 10 % FBS (C) was assessed by a CellVia WST-1 assay (Young In Frontier, Seoul, Korea) according to the manufacturer’s instruction. The numbers of viable cells were measured at a wavelength of 450 nm using an VersaMax ELISA plate reader (Molecular Devices). D, E, Binding specificity of AGM-330. A whole-cell binding assay was performed to determine the cell binding of AGM-330 in 1 % FBS (D) or 5 % FBS (E). Scale bar, 200 μm.

[3] = test system: MCF-10A cells; test: cells; conditions: read-out: IC50, MCF-10A cells; 48 h treatment, WST-1
Experimental: as §1, §2

CSCC[C@H](NC(=O)[C@H](C)NC(=O)CNC(=O)[C@H](Cc1c[nH]cn1)NC(=O)[C@@H](N)CCCNC(=N)N)C(=O)N[C@H](C(=O)N[C@@H](Cc1ccc(O)cc1)C(=O)N[C@@H](CC(C)C)C(=O)N[C@@H](CCCCN)C(=O)NCCOCCOCCOCCOCCOCCOCCOCCOCCOCCOCCOCCOCCC(=O)NCCCC[C@H](NC(=O)CCOCCOCCOCCOCCOCCOCCOCCOCCOCCOCCOCCOCCNC(=O)[C@H](CCCCN)NC(=O)[C@H](CC(C)C)NC(=O)[C@H](Cc1ccc(O)cc1)NC(=O)[C@@H](NC(=O)[C@H](CCSC)NC(=O)[C@H](C)NC(=O)CNC(=O)[C@H](Cc1c[nH]cn1)NC(=O)[C@@H](N)CCCNC(=N)N)C(C)C)C(=O)NCCCC[C@H](NC(=O)[C@H](CCCCNC(=O)CCOCCOCCOCCOCCOCCOCCOCCOCCOCCOCCOCCOCCNC(=O)[C@H](CCCCN)NC(=O)[C@H](CC(C)C)NC(=O)[C@H](Cc1ccc(O)cc1)NC(=O)[C@@H](NC(=O)[C@H](CCSC)NC(=O)[C@H](C)NC(=O)CNC(=O)[C@H](Cc1c[nH]cn1)NC(=O)[C@@H](N)CCCNC(=N)N)C(C)C)NC(=O)CCOCCOCCOCCOCCOCCOCCOCCOCCOCCOCCOCCOCCNC(=O)[C@H](CCCCN)NC(=O)[C@H](CC(C)C)NC(=O)[C@H](Cc1ccc(O)cc1)NC(=O)[C@@H](NC(=O)[C@H](CCSC)NC(=O)[C@H](C)NC(=O)CNC(=O)[C@H](Cc1c[nH]cn1)NC(=O)[C@@H](N)CCCNC(=N)N)C(C)C)C(=O)N[C@@H](CS)C(=O)O)C(C)C [AGM-330]
average tumor volume versus vehicle (PBS)-treated mice [1]: no significant difference | IC50 [2]: > 100 µM | IC50 [3]: > 100 µM
